Patent publication US8163771B2, “11 β-HSD1 modulators” (Exelixis, Inc., priority 2008, dated 2012)
pIC50: −log10 of the molar value.

These molecules were tested against T1, recombinant human 11 β-HSD1 (Homo sapiens, UniProt P28845) (assay: 11 β-HSD1 SPA Assay (Scintillation Proximity Assay)).
T1 construct: made in house; host or cells: E. coli
T1 sequence (P28845 whole entry): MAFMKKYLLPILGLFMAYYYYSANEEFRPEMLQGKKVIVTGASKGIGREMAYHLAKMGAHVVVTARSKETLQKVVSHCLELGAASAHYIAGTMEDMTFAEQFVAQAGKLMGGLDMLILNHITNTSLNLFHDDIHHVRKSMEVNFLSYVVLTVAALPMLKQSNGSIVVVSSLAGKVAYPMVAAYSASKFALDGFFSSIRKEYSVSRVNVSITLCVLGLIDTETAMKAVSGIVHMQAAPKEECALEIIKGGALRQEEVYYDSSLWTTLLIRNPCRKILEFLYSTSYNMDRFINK
Type: biochemical
In short: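 E. coli-expressed human enzyme (30-100 nM) with tritiated cortisone 40 nM and NADPH 1 mM in HEPES buffer pH7.4, 2 hours at room temperature. Stopped with protein A SPA beads carrying anti-cortisol antibody and glycyrrhetinic acid; counted after overnight incubation. IC50 from percent inhibition between no-enzyme and no-compound signals.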
With `CC(C)(Oc1ccc(Cl)cc1Cl)C(=O)N[C@H]1C[C@H]2CC[C@@H](C1)N2c1ccc(C(=O)NCc2ccncc2)cn1` [Example 342, 6-(3-endo-{[2-(2,4-dichlorophenoxy)-2-methylpropanoyl]amino}-8-azabicyclo[3.2.1]oct-8-yl)-N-(pyridin-4-ylmethyl)pyridine-3-carboxamide] the pIC50 was greater than 6.70.
`CC(C)(Oc1ccc(Cl)cc1C(F)(F)F)C(=O)N[C@H]1C[C@H]2CC[C@@H](C1)N2c1ccc(C(=O)NCC(F)F)cn1` [Example 343, 6-[3-endo-({2-[4-chloro-2-(trifluoromethyl)phenoxy]-2-methylpropanoyl}amino)-8-azabicyclo[3.2.1]oct-8-yl]-N-(2,2-difluoroethyl)pyridine-3-carboxamide] was tested, and the pIC50 was greater than 6.70.
For `CC(C)(Oc1cc(-c2ccccc2)ccc1Cl)C(=O)N[C@H]1C[C@H]2CC[C@@H](C1)N2c1ccc(C(N)=O)cn1` [Example 344, 6-[3-endo-({2-[(4-chlorobiphenyl-3-yl)oxy]-2-methylpropanoyl}amino)-8-azabicyclo[3.2.1]oct-8-yl]pyridine-3-carboxamide], the pIC50 was greater than 6.70.
`CC(C)(Oc1ccc(Cl)cc1C(F)(F)F)C(=O)NC1CC2CCC(C1)N2c1ccc(C(=O)NC2CC2(F)F)cn1` (stereo not drawn) [Example 345, 6-[3-endo-({2-[4-chloro-2-(trifluoromethyl)phenoxy]-2-methylpropanoyl}amino)-8-azabicyclo[3.2.1]oct-8-yl]-N-(2,2-difluorocyclopropyl)pyridine-3-carboxamide] was tested, and the pIC50 was greater than 6.70.
Work on `CC(C)(Oc1cc(-c2ccc(F)cc2)ccc1Cl)C(=O)N[C@H]1C[C@H]2CC[C@@H](C1)N2c1ccc(C(N)=O)cn1` [Example 346, 6-[3-endo-({2-[(4-chloro-4′-fluorobiphenyl-3-yl)oxy]-2-methylpropanoyl}amino)-8-azabicyclo[3.2.1]oct-8-yl]pyridine-3-carboxamide] yielded a pIC50 greater than 6.70.
`CC(C)(Oc1ccccc1OC(F)(F)F)C(=O)N[C@H]1C[C@H]2CC[C@@H](C1)N2c1ccc(C(=O)NCC(F)(F)F)cn1` [Example 347, 6-[3-endo-({2-methyl-2-[2-(trifluoromethoxy)phenoxy]propanoyl}amino)-8-azabicyclo[3.2.1]oct-8-yl]-N-(2,2,2-trifluoroethyl)pyridine-3-carboxamide] was tested, and the pIC50 was greater than 6.70.
`CC(C)(Oc1ccc2ccccc2c1Cl)C(=O)N[C@H]1C[C@H]2CC[C@@H](C1)N2c1ccc(C(=O)NCC(F)(F)F)cn1` [Example 348, 6-[3-endo-({2-[(1-chloronaphthalen-2-yl)oxy]-2-methylpropanoyl}amino)-8-azabicyclo[3.2.1]oct-8-yl]-N-(2,2,2-trifluoroethyl)pyridine-3-carboxamide] showed a pIC50 greater than 6.70.
With `CC(C)(Oc1ccc(F)cc1Cl)C(=O)NC1CC2CCC(C1)N2c1ccc(C(=O)NC2CC2(F)F)cn1` (stereo not drawn) [Example 349, 6-(3-endo-{[2-(2-chloro-4-fluorophenoxy)-2-methylpropanoyl]amino}-8-azabicyclo[3.2.1]oct-8-yl)-N-(2,2-difluorocyclopropyl)pyridine-3-carboxamide] the pIC50 was greater than 6.70.
`CC(C)(CN1CCCC1)NC(=O)c1ccc(N2[C@@H]3CC[C@H]2C[C@@H](NC(=O)C(C)(C)Oc2ccc(Cl)cc2Cl)C3)nc1` [Example 350, 6-(3-endo-{[2-(2,4-dichlorophenoxy)-2-methylpropanoyl]amino}-8-azabicyclo[3.2.1]oct-8-yl)-N-[2-methyl-1-(pyrrolidin-1-yl)propan-2-yl]pyridine-3-carboxamide] showed a pIC50 greater than 6.70.
Work on `CN(C)S(=O)(=O)c1cc(Cl)ccc1OC(C)(C)C(=O)N[C@H]1C[C@H]2CC[C@@H](C1)N2c1ccc(C(=O)NCC(F)(F)F)cn1` [Example 351, 6-[3-endo-({2-[4-chloro-2-(dimethylsulfamoyl)phenoxy]-2-methylpropanoyl}amino)-8-azabicyclo[3.2.1]oct-8-yl]-n-(2,2,2-trifluoroethyl)pyridine-3-carboxamide] yielded a pIC50 greater than 6.70.
Molecule `COCCOc1cc(Cl)ccc1OC(C)(C)C(=O)N[C@H]1C[C@H]2CC[C@@H](C1)N2c1ccc(C(=O)NCC(F)(F)F)cn1` [Example 352, 6-[3-endo-({2-[4-chloro-2-(2-methoxyethoxy)phenoxy]-2-methylpropanoyl}amino)-8-azabicyclo[3.2.1]oct-8-yl]-N-(2,2,2-trifluoroethyl)pyridine-3-carboxamide] has a pIC50 greater than 6.70.
`CC(C)c1cc(Cl)ccc1OC(C)(C)C(=O)N[C@H]1C[C@H]2CC[C@@H](C1)N2c1ccc(C(=O)NCC(F)(F)F)cn1` [Example 353, 6-[3-endo-({2-[4-chloro-2-(propan-2-yl)phenoxy]-2-methylpropanoyl}amino)-8-azabicyclo[3.2.1]oct-8-yl]-N-(2,2,2-trifluoroethyl)pyridine-3-carboxamide] showed a pIC50 greater than 6.70.
`CC(C)(Oc1nccc2ccccc12)C(=O)N[C@H]1C[C@H]2CC[C@@H](C1)N2c1ccc(C(=O)NCC(F)(F)F)cn1` [Example 354, 6-(3-endo-{[2-(isoquinolin-1-yloxy)-2-methylpropanoyl]amino}-8-azabicyclo[3.2.1]oct-8-yl)-N-(2,2,2-trifluoroethyl)pyridine-3-carboxamide] showed a pIC50 greater than 6.70.
In the case of `CC(C)(Oc1ccc(Cl)cc1Cl)C(=O)N[C@H]1C[C@H]2CC[C@@H](C1)N2c1ccc(C(=O)NCC(F)F)cn1` [Example 355, 6-(3-endo-{[2-(2,4-dichlorophenoxy)-2-methylpropanoyl]amino}-8-azabicyclo[3.2.1]oct-8-yl)-N-(2,2-difluoroethyl)pyridine-3-carboxamide], the pIC50 was greater than 6.70.
`CC(C)(Oc1ccc(Cl)cc1S(C)(=O)=O)C(=O)NC1CC2CCC(C1)N2c1ccc(C(=O)NC2CC2(F)F)cn1` (stereo not drawn) [Example 357, 6-[3-endo-({2-[4-chloro-2-(methylsulfonyl)phenoxy]-2-methylpropanoyl}amino)-8-azabicyclo[3.2.1]oct-8-yl]-N-(2,2-difluorocyclopropyl)pyridine-3-carboxamide] was tested, and the pIC50 was greater than 6.70.
Molecule `CC(C)(Oc1ccc(Cl)cc1N1CCOCC1)C(=O)N[C@H]1C[C@H]2CC[C@@H](C1)N2c1ccc(C(=O)NCC(F)(F)F)cn1` [Example 359, 6-[3-endo-({2-[4-chloro-2-(morpholin-4-yl)phenoxy]-2-methylpropanoyl}amino)-8-azabicyclo[3.2.1]oct-8-yl]-N-(2,2,2-trifluoroethyl)pyridine-3-carboxamide] has a pIC50 greater than 6.70.
`CC(C)(Oc1ccc(Cl)cc1C(N)=O)C(=O)N[C@H]1C[C@H]2CC[C@@H](C1)N2c1ccc(C(=O)NCC(F)(F)F)cn1` [Example 360, 6-(3-endo-{[2-(2-carbamoyl-4-chlorophenoxy)-2-methylpropanoyl]amino}-8-azabicyclo[3.2.1]oct-8-yl)-N-(2,2,2-trifluoroethyl)pyridine-3-carboxamide] gave a pIC50 greater than 6.70.
In the case of `CC(C)(Oc1cc(OCCO)c(Cl)cc1Cl)C(=O)N[C@H]1C[C@H]2CC[C@@H](C1)N2c1ccc(C(=O)NCC(F)(F)F)cn1` [Example 361, 6-[3-endo-({2-[2,4-dichloro-5-(2-hydroxyethoxy)phenoxy]-2-methylpropanoyl}amino)-8-azabicyclo[3.2.1]oct-8-yl]-N-(2,2,2-trifluoroethyl)pyridine-3-carboxamide], the pIC50 was greater than 6.70.
`CC(C)(Oc1ccc(Cl)cc1Cl)C(=O)N[C@H]1C[C@H]2CC[C@@H](C1)N2c1ccc(C(=O)NCCN2CCOCC2)cn1` [Example 362, 6-(3-endo-{[2-(2,4-dichlorophenoxy)-2-methylpropanoyl]amino}-8-azabicyclo[3.2.1]oct-8-yl)-N-[2-(morpholin-4-yl)ethyl]pyridine-3-carboxamide] gave a pIC50 greater than 6.70.
For `CC(C)(Oc1ccc(Cl)cc1OC(F)(F)F)C(=O)N[C@H]1C[C@H]2CC[C@@H](C1)N2c1ccc(C(=O)NCC(F)(F)F)cn1` [Example 363, 6-[3-endo-({2-[4-chloro-2-(trifluoromethoxy)phenoxy]-2-methylpropanoyl}amino)-8-azabicyclo[3.2.1]oct-8-yl]-N-(2,2,2-trifluoroethyl)pyridine-3-carboxamide], the pIC50 was greater than 6.70.
In the case of `CC(C)(Oc1ccc(Cl)cc1C(F)F)C(=O)N[C@H]1C[C@H]2CC[C@@H](C1)N2c1ccc(C(=O)NCC(F)(F)F)cn1` [Example 364, 6-[3-endo-({2-[4-chloro-2-(difluoromethyl)phenoxy]-2-methylpropanoyl}amino)-8-azabicyclo[3.2.1]oct-8-yl]-N-(2,2,2-trifluoroethyl)pyridine-3-carboxamide], the pIC50 was greater than 6.70.
Molecule `CC(C)(Oc1ccc(Cl)cc1C(F)F)C(=O)N[C@H]1C[C@H]2CC[C@@H](C1)N2c1ccc(S(C)(=O)=O)cn1` [Example 365, 2-[4-chloro-2-(difluoromethyl)phenoxy]-2-methyl-N-{8-[5-(methylsulfonyl)pyridin-2-yl]-8-azabicyclo[3.2.1]oct-3-endo-yl}propanamide] has a pIC50 greater than 6.70.
With `CC(C)(Oc1cccc2[nH]ccc12)C(=O)N[C@H]1C[C@H]2CC[C@@H](C1)N2c1ccc(C(=O)NCC(F)(F)F)cn1` [Example 366, 6-(3-endo-{[2-(1h-indol-4-yloxy)-2-methylpropanoyl]amino}-8-azabicyclo[3.2.1]oct-8-yl)-N-(2,2,2-trifluoroethyl)pyridine-3-carboxamide] the pIC50 was greater than 6.70.
For `CC(C)(Oc1ccc(Cl)cc1Cl)C(=O)N[C@H]1C[C@H]2CC[C@@H](C1)N2c1ccc(C(=O)NCCO)cn1` [Example 367, 6-(3-endo-{[2-(2,4-dichlorophenoxy)-2-methylpropanoyl]amino}-8-azabicyclo[3.2.1]oct-8-yl)-N-(2-hydroxyethyl)pyridine-3-carboxamide], the pIC50 was greater than 6.70.
Work on `CC(C)NC(=O)c1ccc(N2[C@@H]3CC[C@H]2C[C@@H](NC(=O)C(C)(C)Oc2ccc(Cl)cc2S(C)(=O)=O)C3)nc1` [Example 368, 6-[3-endo-({2-[4-chloro-2-(methylsulfonyl)phenoxy]-2-methylpropanoyl}amino)-8-azabicyclo[3.2.1]oct-8-yl]-N-(propan-2-yl)pyridine-3-carboxamide] yielded a pIC50 greater than 6.70.
With `CC(C)(Oc1ccc(F)cc1C(F)(F)F)C(=O)NC1CC2CCC(C1)N2c1ccc(C(=O)NC2CC2(F)F)cn1` (stereo not drawn) [Example 369, N-(2,2-difluorocyclopropyl)-6-[3-endo-({2-[4-fluoro-2-(trifluoromethyl)phenoxy]-2-methylpropanoyl}amino)-8-azabicyclo[3.2.1]oct-8-yl]pyridine-3-carboxamide] the pIC50 was greater than 6.70.
